The source of these data is patent publication US6482851B1, “Synthesis of dysidiolide and uses thereof” (Sloan-Kettering Institute for Cancer Research, priority 1998, dated 2002).

The test system of test [1] is PC3, DU145 and MCF7 cells. As to the kind of experiment: cell cycle distribution by DNA content histograms (FACS). It counts as cell-based, human. As for the experimental part: Cells with 2n to 4n DNA content were distributed on a DNA histogram and estimations for the percentages of cells in G1(2n), S(2n<X<4N) and G2/M (4n) were calculated using Becton-Dickinson FACS analysis software.
A 20 mM stock solution of dysidiolide was prepared in dimethylsulfoxide (DMSO) and a pilot experiment was carried out to measure the effects of the drug on the viability (Trypan blue exclusion) and flow cytometric parameters of four human cancer cell lines: the prostate lines TSU-Pr1, PC3 and DU145, and the breast line, MCF7. Cultures were treated with 0, 2, 10 and 50 μM dysidiolide for 24 hr. Dysidiolide was cytotoxic to the four lines as evidenced by the loss of Trypan blue exclusion capability and by the appearance of sub-G1 fraction on flow cytometric (FACS) analysis (FIGS. 3 and 4A-D). […] (At 50 μM dysidiolide, the level of cell death was too high in TSU-Pr1 cells to fit a valid histogram (FIG. 5A)). These cell cycle changes are consistent with arrest prior to completion of the replicative (S) phase, or with cell death occurring preferentially in cells with a 4n DNA content (G2/M population).

Test [2] concerns Cdk4. As to the kind of experiment: Cdk4 kinase activity on immunoprecipitates from treated MCF7 cells. As to conditions: 50 μM, 24 hr. It is filed as cell-based, human. The procedure:
(§1) Effect of a 24 hr treatment with 50 μM dysidiolide on the kinase activity of Cdk4, Cdk2 and Cdc2. Cdk were immunoprecipitated from MCF7 cell lysates obtained from cultures treated or not with dysidiolide for 24 hr. Histone H1 was used as substrate for Cdk2 and Cdc2, whereas GST-Rb was the substrate for Cdk4.
(§2) To further characterize the effects of dysidiolide on cell cycle control, experiments were conducted at the molecular level. As Cdc25s (A, B and C) are positive regulators of cyclin-dependent kinases (Cdk) (reviewed in Draetta and Eckstein, BBA 1332: M53-M63, 1997) inhibition of Cdc25 is expected to result in inhibition of Cdk activity. MCF7 cells were treated with 2 or 10 μM dysidiolide or with DMSO (controls) for 2 or 4 hr. Cell extracts were used to measure the steady-state levels of Cdc25 A and C, and Cdk activity. […] However, a decrease in the levels of Cdc25 C (but not on A) was clearly noticeable (FIG. 9B). In the next experiment MCF7 cells were treated for 24 hr with 50 μM dysidiolide or with DMSO (control) for 24 hr. […] On the other hand, at these more stringent conditions, inhibition of Cdk2, Cdk4 and Cdc2 protein kinase activities was observed (FIG. 10A and FIG. 10B).

Another test has as its system Cdc2. As to the kind of experiment: Cdc2 kinase activity on immunoprecipitates from treated MCF7 cells. As to conditions: 50 μM, 24 hr. It counts as cell-based, human. As for the experimental part: as §1, §2
In test [3] the test system is Cdk4. As to the kind of experiment: in vitro kinase assay of Cdk4 immunoprecipitated from treated TSU-Pr1 cells. It is filed as cell-based, human. Particulars: 3.33 μM, TSU-Pr1, as early as 3 hours in drug. As for the experimental part: (§3) TSU-Pr1 cells were treated for 24 hours with either DMSO or 3.33 μM dysidiolide. Cells were pulse-labeled for 30 min with bromodeoxyuridine (BrdU) and analyzed by FACS. The R@ window contains BRDU-positive, S-phase cells. Consistent with the proposed inhibitory effect of dysidiolide on the positive cell cycle regulator Cdc25. the drug inhibited the activity of cyclin-dependent kinases (Cdk). Cdk4, 6 and 2 were immunoprecipitated from DMSO- or drug-treated TSU-Pr1 cell cultures. Activity was examined in vitro kinase assays. The activity of the three Cdks was inhibited in drug-treated cells, as early as 3 hours in drug.
(§4) In vitro kinase assays of Cdk. TSU-Pr1 cells were treated with 3.33 μM dysidiolide for 0-24 hours. Samples were collected at various times and the activity of Cdk4, 6 and 2 was determined. Cdks were immunoprecipitated with specific antibodies and incubated with radiolabeled ATP plus either histH1 (for Cdk2) or GST-Rb (for Cdk4 and 6). Reactions were separated on SDS-polyacrylamide gels and the amount of phosphorylated product was determined by radiometric analysis.

The subject of the next test is Cdk2. As to the kind of experiment: in vitro kinase assay of Cdk2 immunoprecipitated from treated TSU-Pr1 cells. Particulars: 3.33 μM, TSU-Pr1, as early as 3 hours in drug. It counts as cell-based, human. The procedure: as §3, §4
In test [4] the target is T1, human cdc25A protein phosphatase (Homo sapiens, UniProt P30304).
T1 sequence (P30304 1-524): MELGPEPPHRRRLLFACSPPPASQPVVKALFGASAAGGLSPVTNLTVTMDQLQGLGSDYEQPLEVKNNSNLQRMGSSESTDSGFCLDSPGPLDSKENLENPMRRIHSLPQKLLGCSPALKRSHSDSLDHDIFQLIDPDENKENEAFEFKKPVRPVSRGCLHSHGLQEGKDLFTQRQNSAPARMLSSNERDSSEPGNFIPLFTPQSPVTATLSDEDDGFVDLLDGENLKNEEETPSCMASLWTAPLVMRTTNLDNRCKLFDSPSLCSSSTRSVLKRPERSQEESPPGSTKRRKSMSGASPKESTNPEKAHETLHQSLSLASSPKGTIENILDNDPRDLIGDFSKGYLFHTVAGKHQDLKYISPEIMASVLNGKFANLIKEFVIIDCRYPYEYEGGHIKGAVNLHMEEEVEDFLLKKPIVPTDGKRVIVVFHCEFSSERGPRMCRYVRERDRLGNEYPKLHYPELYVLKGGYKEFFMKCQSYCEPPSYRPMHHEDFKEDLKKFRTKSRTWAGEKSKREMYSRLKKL
As to conditions: cited from earlier work.

Structures are written as SMILES.

For `C=C(C)CCC[C@@]1(C)CCC[C@H]2C1=CC[C@H](C)[C@]2(C)C[C@H](O)C1=CC(=O)O[C@@H]1O` (racemic) [dysidiolide], the cell cycle distribution entry in test [1] (MCF7 breast cancer cell line) is “loss of the G2/M peak and accumulation of cells in G1”; in test [1] (PC3, DU145 and MCF7 cells at higher doses of drug, 24 hr), “loss of a G2/M (4 n peak)”. The “Cdk4 protein kinase activity” value in the test with Cdk4 [2] is listed as “inhibition”. Moreover, the “Cdc2 protein kinase activity” value in the test on Cdc2 was “inhibition”. In the test with Cdk4 [3], the Cdk4 activity result is recorded as “inhibited”. Moreover, the Cdk2 activity result with Cdk2 is reported as “inhibited”. In addition, in test [4], the “inhibition of human cdc25A protein phosphatase” value was “potent inhibitor”.
